Like-named read-outs stand apart in the source and are kept apart here.
How the values were obtained:
LLC-PK1 cells = test: Assay for determination of apparent permeability (Papp), bi-directional transport; conditions: comparative compounds described in PCT/US11/059668; LLC-PK1 cells
human O-GlcNAcase = human O-GlcNAcase (Homo sapiens (Human), UniProt O60502); test: biochemical; format: biochemical; conditions: read-out: OGA KI
[1] = Assay for determination of apparent permeability (Papp), bi-directional transport; conditions: pig, LLC-PK1
[2] = target: O-GlcNAcase in rat PC-12 cells (Rattus norvegicus (Rat), UniProt Q8VIJ5); test: cell-based; conditions: rat PC-12 cells, 24 hours treatment, increase in O-GlcNAcylated protein; read-out: Cell based ELISA EC50
Chain of O-GlcNAcase in rat PC-12 cells (Q8VIJ5 whole entry): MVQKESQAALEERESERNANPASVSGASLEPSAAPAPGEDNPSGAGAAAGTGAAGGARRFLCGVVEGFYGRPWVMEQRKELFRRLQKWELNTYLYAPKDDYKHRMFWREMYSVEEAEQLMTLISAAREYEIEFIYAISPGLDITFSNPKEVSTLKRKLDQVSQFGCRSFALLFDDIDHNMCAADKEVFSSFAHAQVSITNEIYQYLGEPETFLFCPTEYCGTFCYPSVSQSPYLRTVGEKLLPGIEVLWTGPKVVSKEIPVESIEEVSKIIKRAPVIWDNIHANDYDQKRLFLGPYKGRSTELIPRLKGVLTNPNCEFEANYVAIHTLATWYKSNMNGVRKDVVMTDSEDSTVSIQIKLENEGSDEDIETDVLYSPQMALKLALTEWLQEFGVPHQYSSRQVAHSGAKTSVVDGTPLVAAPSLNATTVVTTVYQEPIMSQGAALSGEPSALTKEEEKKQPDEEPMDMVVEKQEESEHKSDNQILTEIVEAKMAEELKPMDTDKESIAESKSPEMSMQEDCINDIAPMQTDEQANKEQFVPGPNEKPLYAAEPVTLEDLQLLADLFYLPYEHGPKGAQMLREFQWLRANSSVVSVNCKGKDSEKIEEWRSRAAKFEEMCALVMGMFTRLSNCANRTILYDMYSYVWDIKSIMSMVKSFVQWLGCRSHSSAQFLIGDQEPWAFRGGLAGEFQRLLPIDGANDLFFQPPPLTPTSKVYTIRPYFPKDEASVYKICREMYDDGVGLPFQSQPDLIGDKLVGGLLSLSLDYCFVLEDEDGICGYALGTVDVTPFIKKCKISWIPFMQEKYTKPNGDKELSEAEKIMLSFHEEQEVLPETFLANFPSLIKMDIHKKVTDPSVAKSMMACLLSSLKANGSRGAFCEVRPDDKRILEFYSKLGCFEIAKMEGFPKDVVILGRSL
Text: Assay for Determination of Cellular Activity for Compounds that Inhibit O-GlcNAcase Activity
Inhibition of O-GlcNAcase, which removes O-GlcNAc from cellular proteins, results in an increase in the level of O-GlcNAcylated protein in cells. An increase in O-GlcNAcylated protein can be measured by an antibody, such as RL-2, that binds to O-GlcNAcylated protein. The amount of O-GlcNAcylated protein:RL2 antibody interaction can be measured by enzyme linked immunosorbant assay (ELISA) procedures.
A variety of tissue culture cell lines, expressing endogenous levels of O-GlcNAcase, can be utilized; examples include rat PC-12, and human U-87, or SK-N-SH cells. In this assay, rat PC-12 cells were plated in 96-well plates with approximately 10,000 cells/well. Compounds to be tested were dissolved in DMSO, either 2 or 10 mM stock solution, and then diluted with DMSO and water in a two-step process using a Tecan workstation. […] To prepare a cell lysate, the media from compound treated cells was removed, the cells were washed once with phosphate buffered saline (PBS) and then lysed for 5 minutes at room temperature in 50 μL of Phosphosafe reagent (Novagen Inc, Madison, Wis.) with protease inhibitors and PMSF. The cell lysate was collected and transferred to a new plate, which was then either coated to assay plates directly or frozen −80° C. until used in the ELISA procedure. If desired, the total protein concentration of samples is determined using 20 μL of the sample using the BCA method.
The plate was sealed and incubated at 37° C. for 2 hr with gentle shaking. The wells were then washed 3-times with 300 μl/well wash buffer. […] The plate was incubated for 60 min at 37° C. with gentle shaking. Each well was then washed 3-times with 300 μl/well wash buffer. The detection reagent was added, 100 μL/well of Amplex Ultra RED reagent (prepared by adding 30 μL of 10 mM Amplex Ultra Red stock solution to 10 ml PBS with 18 μL 3% hydrogen peroxide, H2O2). The detection reaction was incubated for 15 minutes at room temperature and then read with excitation at 530 nm and emission at 590 nm.

[3] = purified human O-GlcNAcase 0.7 nM, pH 7.0, room temperature, Cheng-Prusoff
[4] = comparative compounds described in PCT/US11/059668

Chain of human O-GlcNAcase (O60502 whole entry): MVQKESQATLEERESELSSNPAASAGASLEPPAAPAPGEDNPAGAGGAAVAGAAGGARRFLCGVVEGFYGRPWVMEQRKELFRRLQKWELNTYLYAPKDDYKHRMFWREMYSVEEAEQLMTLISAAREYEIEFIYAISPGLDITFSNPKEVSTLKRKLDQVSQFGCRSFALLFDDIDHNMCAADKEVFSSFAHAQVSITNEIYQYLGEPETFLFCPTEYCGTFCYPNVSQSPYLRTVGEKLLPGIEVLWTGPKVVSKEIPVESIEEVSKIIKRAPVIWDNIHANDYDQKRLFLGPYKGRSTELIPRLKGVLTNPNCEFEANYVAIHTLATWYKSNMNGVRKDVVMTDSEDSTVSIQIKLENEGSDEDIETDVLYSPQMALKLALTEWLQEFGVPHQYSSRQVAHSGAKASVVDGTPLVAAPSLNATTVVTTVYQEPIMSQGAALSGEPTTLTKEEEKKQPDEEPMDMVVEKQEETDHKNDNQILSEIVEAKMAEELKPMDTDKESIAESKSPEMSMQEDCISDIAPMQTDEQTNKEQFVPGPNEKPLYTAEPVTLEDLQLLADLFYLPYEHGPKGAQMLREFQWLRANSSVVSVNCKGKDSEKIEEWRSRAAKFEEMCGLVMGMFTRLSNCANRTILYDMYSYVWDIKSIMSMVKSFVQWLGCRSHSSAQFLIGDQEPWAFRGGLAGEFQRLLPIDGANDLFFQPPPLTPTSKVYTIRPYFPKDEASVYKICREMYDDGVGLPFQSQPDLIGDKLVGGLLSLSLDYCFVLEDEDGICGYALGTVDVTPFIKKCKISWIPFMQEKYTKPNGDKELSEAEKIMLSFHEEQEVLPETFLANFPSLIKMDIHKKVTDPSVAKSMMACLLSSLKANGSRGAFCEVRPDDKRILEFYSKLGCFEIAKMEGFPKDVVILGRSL

Compound | Papp (X10-6 cm/sec) (LLC-PK1 cells) | Ki (human O-GlcNAcase) | Papp at 3 h, 1 μM [1] | Ki (human O-GlcNAcase; [3]) | EC50 [2] | Ki (human O-GlcNAcase; [4])
CO[C@@H](C)[C@H]1O[C@@H]2SC(N(C)C)=N[C@@H]2[C@@H](O)[C@@H]1O [Example 11, (3aR,5S,6S,7R,7aR)-2-(dimethylamino)-5-((S)-1-methoxyethyl)-5,6,7,7a-tetrahydro-3aH-pyrano[3,2-d]thiazole-6,7-diol] | 1.6 X10-6 cm/sec | – | – | – | – | –
CN(C)C1=N[C@@H]2[C@@H](O)[C@H](O)[C@@H]([C@H](OCc3ccccc3F)C(F)(F)F)O[C@@H]2S1 [Example 62, (3aR,5S,6S,7R,7aR)-2-(dimethylamino)-5-((S)-2,2,2-trifluoro-1-(2-fluorobenzyloxy)ethyl)-5,6,7,7a-tetrahydro-3aH-pyrano[3,2-d]thiazole-6,7-diol] | 1.7 X10-6 cm/sec | 0.96 nM | 31.1 ×10⁻⁶ cm/s | – | – | –
CCCO[C@H]([C@H]1O[C@@H]2SC(NC)=N[C@@H]2[C@@H](O)[C@@H]1O)C(F)(F)F [Example 79, (3aR,5S,6S,7R,7aR)-2-(methylamino)-5-((R)-2,2,2-trifluoro-1-propoxyethyl)-5,6,7,7a-tetrahydro-3aH-pyrano[3,2-d]thiazole-6,7-diol] | – | – | 20.4 ×10⁻⁶ cm/s | 3.77 nM | 173 nM | –
CNC1=N[C@@H]2[C@@H](O)[C@H](O)[C@@H]([C@@H](OCc3ccc(F)cc3)C(F)(F)F)O[C@@H]2S1 [Example 89, (3aR,5S,6S,7R,7aR)-2-(methylamino)-5-((R)-2,2,2-trifluoro-1-(4-fluorobenzyloxy)ethyl)-5,6,7,7a-tetrahydro-3aH-pyrano[3,2-d]thiazole-6,7-diol] | – | – | 25.4 ×10⁻⁶ cm/s | 1.44 nM | 57.4 nM | –
CNC1=N[C@@H]2[C@@H](O)[C@H](O)[C@@H]([C@@H](OCc3ccc(Cc4ccccc4)cc3)C(F)(F)F)O[C@@H]2S1 [Example 95, (3aR,5S,6S,7R,7aR)-5-((R)-1-(4-benzylbenzyloxy)-2,2,2-trifluoroethyl)-2-(methylamino)-5,6,7,7a-tetrahydro-3aH-pyrano[3,2-d]thiazole-6,7-diol] | <1.0 X10-6 cm/sec | – | – | – | – | 0.16 nM
CNC1=N[C@@H]2[C@@H](O)[C@H](O)[C@@H]([C@H](C)OC)O[C@@H]2S1 [Example 111, (3aR,5S,6S,7R,7aR)-5-((S)-1-methoxyethyl)-2-(methylamino)-5,6,7,7a-tetrahydro-3aH-pyrano[3,2-d]thiazole-6,7-diol] | 2.7 X10-6 cm/sec | – | – | – | – | 4.26 nM

Reference: patent publication US9611275B2 (priority 2012, dated 2017)
